Measured values: patent publication US7015212B1, “Thiazepine inhibitors of HIV-1 integrase” (The United States of America as represented by the …, priority 1999, dated 2006)
Several values for one entry are separate records, joined by “and”; a condition that tells them apart may be missing. Identical values can stand only once. Like-named read-outs stand apart in the source and are kept apart here.

Experiments:
[1] = tested on: T4 lymphocytes (CEM cell line); assay: Cytotoxicity in uninfected CEM cells (XTT toxicity control); conditions: read-out: Cell data (μM) CC50: 50% cytotoxic concentration; uninfected CEM cells, 6 days, XTT
Experimental: (§1) The anti-HIV drug testing was performed at NCI based on a protocol described by Weislow et al.^36 All compounds were dissolved in dimethyl sulfoxide and diluted 1:100 in cell culture medium. Exponentially growing T4 lymphocytes (CEM cell line) were added at 5000 cells per well. Frozen virus stock solutions were thawed immediately before use, suspended in complete medium to yield the desired multiplicity of infection (m. o. i.≈0.1), and added to the microtiter wells, resulting in a 1:200 final dilution of the compound. Uninfected cells with the compound served as a toxicity control, and infected and uninfected cells without the compound served as basic controls.
(§2) Cultures were incubated at 37° C. in a 5% CO2 atmosphere for 6 days. The tetrazolium salt, XTT was added to all wells, and cultures were incubated to allow formazan color development by viable cells. Individual wells were analyzed spectrophotometrically to quantitate formazan production, and in addition were viewed microscopically for detection of viable cells and confirmation of protective activity.

[2] = target: T1, purified HIV-1 integrase (HIV-1 IN) (Human immunodeficiency virus type 1 group M subtype B, UniProt P12497); assay: biochemical;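 further: integrase at 200 nM exposed to inhibitor 30 min at 30 °C, then 1 h with 20 nM 5′-32P-labelled 21-mer DNA, 3′-processing or strand transfer products quantified on denaturing gels versus no-drug enzyme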
Experimental: (§3) To analyze the extent of 3′-processing and strand transfer using 5′-end labeled substrates, AE118 was 5′-end labeled using T4 polynucleotide kinase (Gibco BRL) and γ[^32P]-ATP (Dupont-NEN). To determine the extent of 30mer target strand generation during disintegration, AE157 was 5′-end labeled and annealed to AE156, AE146, and AE117. The kinase was heat-inactivated and AE117 was added to the same final concentration. The mixture was heated at 95° C., allowed to cool slowly to room temperature, and run through a G-25 Sephadex quick spin column (Boehringer Mannheim, Indianapolis, Ind.) to separate annealed double-stranded oligonucleotide from unincorporated label.
(§4) To determine the extent of 3′-processing and strand transfer, integrase was preincubated at a final concentration of 200 nM with the inhibitor in a reaction buffer (50 mM NaCl, 1 mM HEPES, pH 7.5, 50 μM EDTA, 50 μM dithiothreitol, 10% glycerol (w/v), 7.5 mM MnCl2, 0.1 mg/ml bovine serum albumin, 10 mM 2-mercaptoethanol, 10% dimethyl sulfoxide, and 25 mM MOPS, pH 7.2) at 30° C. for 30 minutes. Then, 20 nM of the 5′-end ^32P labeled linear oligonucleotide substrate was added, and incubation was continued for an additional one hour. Reactions were quenched by the addition of an equal volume (16 μ) of loading dye (98% deionized formamide, 10 mM EDTA, 0.025% xylene cyanol and 0.025% bromophenol blue). An aliquot (5 μl) was electrophoresed on a denaturing 20% polyacrylamide gel (0.09 M tris-borate pH 8.3, 2 mM EDTA, 20% acrylamide, 8M urea).
(§5) Gels were dried, exposed in a PhosphorImager cassette, and analyzed using a Molecular Dynamics PhosphorImager (Sunnyvale, Calif.). Percent inhibition was calculated using the following equation: % I=100×[1−(D−C)/(N−C)] where C, N, and D are the fractions of 21-mer substrate converted to 19-mer (3′-processing product) or strand transfer products for DNA alone (C), DNA plus integrase (N), and integrase plus drug (D). All IC50 values were determined by plotting the drug concentration versus percent inhibition, and determining the concentration which produced 50% inhibition.

[3] = Cytotoxicity in uninfected CEM cells (XTT toxicity control); conditions: human, uninfected CEM cells (T4 lymphocytes)
Experimental: as §1, §2

HIV-1 infected CEM cells = assay: Anti-HIV assay in cultured CEM cells (NCI XTT protocol); format: cell-based
Experimental: as §1, §2

HIV-1 IN = target: T2, HIV-1 IN (Human immunodeficiency virus type 1 group M subtype B, UniProt P12497); assay: HIV-1 integrase inhibition with Mg+2 as cofactor (gel assay); format: biochemical; conditions: compared with Mn+2, 1000, 333, 111, 37 μM
T2 construct: An expression system for the wild-type integrase and the IN^50–212 (F185K) were obtained from the Laboratory of Molecular Biology, NIDDK; made in house
Experimental: FIGS. 2 and 3 show concentration dependent inhibition of HIV-1 IN by thiazolothiazepines 1, 19, and 20 using Mn^+2 (FIG. 2) and Mg^+2 (FIG. 3) as a cofactor. Lane 1, DNA alone, lanes 2 and 15 DNA and integrase, lanes 3–6, 7–10, 11–14 DNA, integrase, and compounds 1, 19, and 20 at 1000, 333, 111, and 37 μM, respectively. See Table 1 for compound identifiers 1, 19, 20.
A 21-mer oligonucleotide corresponding to the last 21 bases on the HIV-1 viral DNA in the U5 region of long terminal repeat (LTR) was radiolabeled with ^32P. This is shown in the FIGS. 2 and 3 as a band corresponding to DNA alone. Integrase will cleave the last two bases of this DNA in the presence of Mn^+2 or Mg^+2 to give a 19-mer DNA substrate (lane 2) which runs faster on the gel and is indicated as 19-mer on the Figures. When an inhibitor is added this process is blocked, therefore the original 21-mer DNA would not be cut. When an inhibitor is added at various concentrations, percent inhibition at every concentration will be calculated by quantification of the intensity of each band using an Imagequant program.
The gels are run using polyacrylamide according to the standard procedures. Upon completion of electrophoresis run, the gels are dried and exposed to a phosphorimager cassette. The cassettes are analyzed by the phosphorimager, and the bands are shown on a computer screen. The intensity of each band is quantitated, plotted against concentrations of drugs, and the IC50 values are calculated from the graphs.

[4] = target: T1, purified HIV-1 integrase (HIV-1 IN)
Experimental: as §3, §4, §5

| melting point [°C] | Compound | CC50 [1] [µM] | IC50 [2] | CC50 at 6 days [3] [µM] | also measured |
| --- | --- | --- | --- | --- | --- |
|  | O=C1Sc2ccc(Cl)cc2C(=O)N2CCSC12 (racemic) [Compound 2, (±)-7-Chloro-2,3-dihydro-5H-thiazolo[2,3-c][1,4]benzothiazepine-5,11 (11aH)-dione] | > 50 |  |  |  |
| 219 to 220 | O=C1Sc2ccc(Br)cc2C(=O)N2CCSC12 (racemic) [Compound 3, (±)-7-Bromo-2,3-dihydro-5H-thiazolo[2,3-c][1,4]benzothiazepine-5,11 (11aH)-dione] |  |  |  |  |
|  | Cc1ccc2c(c1)C(=O)N1CCSC1C(=O)S2 (racemic) [Compound 4, (±)-2,3-Dihydro-7-methyl-5H-thiazolo[2,3-c][1,4]benzothiazepine-5,11 (11aH)-dione] |  | 55 µM and 64 µM |  |  |
|  | O=C1Sc2ccccc2C(=O)N2CSCC12 (racemic) [Compound 5] |  | 227 µM and 208 µM | > 200 |  |
| 204 to 205 | O=C1Sc2ccc(Cl)cc2C(=O)N2CSCC12 (racemic) [Compound 6, (±)-7-Chloro-1,11a-dihydro-3H,5H,11H-thiazolo[4,3-c][1,4]benzothiazepine-5,11-dione] | > 100 |  |  |  |
| 213 to 214 | O=C1Sc2ccc(Br)cc2C(=O)N2CSCC12 (racemic) [Compound 7, (±)-7-Bromo-1,11a-dihydro-3H,5H,11H-thiazolo[4,3-c][1,4]benzothiazepine-5,11-dione] | > 200 |  |  |  |
|  | Cc1ccc2c(c1)C(=O)N1CSCC1C(=O)S2 (racemic) [Compound 8, (±)-1,11a-Dihydro-7-methyl-3H,5H,11H-thiazolo[4,3-c][1,4]benzothiazepine-5,11-dione] | 35 |  |  |  |
| 231 to 232 | O=C1Sc2cc([N+](=O)[O-])ccc2C(=O)N2CSCC12 (racemic) [Compound 9, (±)-1,11a-Dihydro-8-nitro-3H,5H,11H-thiazolo[4,3-c][1,4]benzothiazepine-5,11-dione] | > 50 |  |  |  |
|  | COc1ccc2c(c1)C(=O)N1CSCC1C(=O)S2 (racemic) [Compound 10, (±)-1,11a-dihydro-7-methoxy-3H,5H, 11H-thiazolo[4,3-c][1,4]benzothiazepine-5,11-dione] | > 200 |  |  |  |
|  | O=C1Sc2ccccc2C(=O)N2C[S+]([O-])CC12 (racemic) [Compound 16, (±)-cis-1,11a-Dihydro-3H,5H,11H-thiazolo[4,3-c][1,4]benzothiazepine-5,11-dione 2-oxide] |  | 215 µM and 222 µM and 200 µM and 185 µM |  |  |
|  | O=C1Sc2cc3ccccc3cc2C(=O)N2CCSC12 (racemic) [Compound 19, (±)-2,3-Dihydro-5H-naphto[2,3-f]thiazolo[2,3-c][1,4]thiazepine-5,13(13aH)-dione] |  | 47 ± 6 µM | > 316 | therapeutic index (TI=CC50/EC50) (HIV-1 infected CEM cells): > 5; activity against IN in the presence of Mg+2 (HIV-1 IN): active in the presence of Mg^+2 within the same concentration range as in Mn^+2 |
|  | O=C1Sc2cc3ccccc3cc2C(=O)N2CSCC12 (racemic) [Compound 20, (±)-1,13a-Dihydro-3H,5H,11H-naphto[2,3-f]thiazolo[4,3-c][1,4]thiazepine-5,13-dione] |  | 92 µM and 100 µM | > 316 | activity against IN in the presence of Mg+2 (HIV-1 IN): active in the presence of Mg^+2 within the same concentration range as in Mn^+2 |
| 137 to 141 | O=C1c2ccccc2SC(O)(c2ccccc2)C2CCCN12 (racemic) [Compound 26, (±)-2,3,11,11a-Tetrahydro-11-hydroxy-11-phenyl-1H,5H-pyrrolo [2,1-c][1,4]benzothiazepin-5-one] |  |  |  |  |
|  | CN1CCN([C@@H]2Sc3ccccc3C(=O)N3CCC[C@@H]23)CC1 (racemic) [Compound 27, (±)-cis-2,3,11,11a-Tetrahydro-11-(4-methylpiperazin-1-yl)-1H,5H-pyrrolo[2,1-c][1,4]benzothiazepin-5-one] | > 125 |  |  |  |
| 161 to 162 | CN1CCN(Cc2ccc3n2Cc2ccccc2SC3c2ccccc2)CC1 (racemic) [Compound 31, (±)-3-[(4-Methylpiperazin-1-yl)methyl]-11-phenyl-5H,11H-pyrrolo [2,1-c][1,4]benzothiazepine] |  |  |  |  |
|  | O=C1Sc2ccccc2C(=O)N2CCSC12 (stereo not drawn) [Compound 1] |  | 110 µM and 146 µM | > 200 | therapeutic index (TI=CC50/EC50) (HIV-1 infected CEM cells): > 1.8; activity against IN in the presence of Mg+2 (HIV-1 IN): active in the presence of Mg^+2 within the same concentration range as in Mn^+2 |
|  | COc1cc2c(cc1OC)C(=O)N1CSCC1C(=O)S2 (stereo not drawn) [Compound 11] |  | 330 µM and 670 µM and 630 µM | > 50 |  |
|  | COc1cc2c(cc1OC)C(=O)N1CCCC1C(=O)S2 (stereo not drawn) [Compound 13] |  |  | > 200 |  |
|  | O=C1Sc2ccccc2C(=O)N2CCCCC12 (stereo not drawn) [Compound 14] |  | 343 µM and 406 µM and 495 µM | > 200 |  |
|  | CC(=O)OC1Sc2ccccc2C(=O)N2CCCC12 (stereo not drawn) [Compound 21] |  |  | > 200 |  |
|  | COC1Sc2ccccc2C(=O)N2CCCC12 (stereo not drawn) [Compound 22] | > 200 |  |  |  |
|  | COc1cc2c(cc1OC)C(=O)N1CCCC1CS2 (stereo not drawn) [Compound 24] |  |  | > 200 |  |
|  | O=C1c2ccccc2SC(O)C2CCCN12 (stereo not drawn) [Compound 25] |  |  | > 200 |  |
|  | O=C1Sc2ccccc2Cn2cccc21 [Compound 28] | > 200 |  |  | IC50 [4]: 590 µM and 300 µM |
|  | CCOC(=O)C1Sc2ccccc2C(=O)n2cccc21 (stereo not drawn) [Compound 29] |  | > 1000 µM |  |  |
|  | CN(C)Cc1ccc2n1C(=O)c1ccccc1SC2c1ccc(F)cc1 (stereo not drawn) [Compound 30] |  | > 1000 µM |  |  |

| Compound | melting point [°C] | CC50 [1] [µM] | IC50 [2] | CC50 at 6 days [3] [µM] | also measured |
| --- | --- | --- | --- | --- | --- |
| Cc1ccc2c(c1)C(=O)N1CC[S+]([O-])C1C(=O)S2 (racemic) [Compound 15, (±)-cis-2,3-Dihydro-7-methyl-5H-thiazolo[2,3-c][1,4]benzothiazepine-5,11 (11aH)-dione 1-Oxide] | 211 to 212 |  | 590 ± 350 µM | > 100 |  |
| O=C1Sc2ccc(Cl)cc2C(=O)N2C[S+]([O-])CC12 (racemic) [Compound 17, (±)-cis-7-Chloro-1,11a-dihydro-3H,5H,11H-thiazolo[4,3-c][1,4]benzothiazepine-5,11-dione 2-Oxide] | 213 to 215 |  | 280 µM and 200 µM and 260 µM and 215 µM |  |  |
| COc1ccc2c(c1)C(=O)N1C[S+]([O-])CC1C(=O)S2 (racemic) [Compound 18, (±)-cis-1,11a-Dihydro-7-methoxy-3H,5H,11H-thiazolo[4,3-c][1,4]benzothiazepine-5,11-dione 2-Oxide] | 172 to 174 |  | 142 µM and 84.5 µM |  |  |
